# Measured values as given in PubChem BioAssay (NCI).
#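 Each compound was tested at five concentrations against cells in 96-well plates for 48 hours. At the GI50, growth is halved. Definition used: TGI = concentration required for complete inhibition of growth.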
# What was measured:
# Test in all cases: growth of human tumour cells (NCI), 48 h
# MALME-3M melanoma = tested on: MALME-3M melanoma
# K-562 leukemia = tested on: K-562 leukemia
# EKVX NSCLC = tested on: EKVX NSCLC
# UACC-257 melanoma = tested on: UACC-257 melanoma
# NCI-H23 lung = tested on: NCI-H23 lung
# MOLT-4 leukemia = tested on: MOLT-4 leukemia
# SF-268 CNS = tested on: SF-268 CNS
# SK-MEL-2 melanoma = tested on: SK-MEL-2 melanoma
# HL-60(TB) leukemia = tested on: HL-60(TB) leukemia
# IGROV1 ovarian = tested on: IGROV1 ovarian
# HT29 colon = tested on: HT29 colon
# SK-MEL-5 melanoma = tested on: SK-MEL-5 melanoma
# SW-620 colon = tested on: SW-620 colon
# HCT-116 colon = tested on: HCT-116 colon
# UO-31 renal = tested on: UO-31 renal
# MDA-MB-435 = tested on: MDA-MB-435
# LOX IMVI melanoma = tested on: LOX IMVI melanoma
# NCI-H226 lung = tested on: NCI-H226 lung
# HS 578T breast = tested on: HS 578T breast
# OVCAR-3 ovarian = tested on: OVCAR-3 ovarian
# 786-0 renal = tested on: 786-0 renal
# BT-549 breast = tested on: BT-549 breast
# SF-295 CNS = tested on: SF-295 CNS
# MCF7 breast = tested on: MCF7 breast
# NCI-H460 lung = tested on: NCI-H460 lung
# HCC-2998 colon = tested on: HCC-2998 colon
# TK-10 renal = tested on: TK-10 renal
# COLO 205 colon = tested on: COLO 205 colon
# HCT-15 colon = tested on: HCT-15 colon
# KM12 colon = tested on: KM12 colon
# SNB-75 CNS = tested on: SNB-75 CNS
# ACHN renal = tested on: ACHN renal
# SK-OV-3 ovarian = tested on: SK-OV-3 ovarian
# HOP-92 NSCLC = tested on: HOP-92 NSCLC
# DU-145 prostate = tested on: DU-145 prostate
# NCI/ADR-RES ovarian = tested on: NCI/ADR-RES ovarian
# OVCAR-5 ovarian = tested on: OVCAR-5 ovarian
# UACC-62 melanoma = tested on: UACC-62 melanoma
# SN12C renal = tested on: SN12C renal
# A498 renal = tested on: A498 renal
# MDA-MB-231 breast = tested on: MDA-MB-231 breast
# U251 CNS = tested on: U251 CNS
# NCI-H522 lung = tested on: NCI-H522 lung
# T-47D breast = tested on: T-47D breast
# A549 NSCLC = tested on: A549 NSCLC
# SNB-19 CNS = tested on: SNB-19 CNS
# CAKI-1 renal = tested on: CAKI-1 renal
# CCRF-CEM leukemia = tested on: CCRF-CEM leukemia
# RXF 393 renal = tested on: RXF 393 renal
# PC-3 prostate = tested on: PC-3 prostate
# M14 melanoma = tested on: M14 melanoma
# HOP-62 NSCLC = tested on: HOP-62 NSCLC
# OVCAR-8 ovarian = tested on: OVCAR-8 ovarian
# SR leukemia = tested on: SR leukemia
# SF-539 CNS = tested on: SF-539 CNS
# RPMI-8226 leukemia = tested on: RPMI-8226 leukemia
# OVCAR-4 ovarian = tested on: OVCAR-4 ovarian
# SK-MEL-28 melanoma = tested on: SK-MEL-28 melanoma
smiles,measurement,setting,value
Cn1cc(-c2csc(-c3c[nH]c4ccc(F)cc34)n2)c2cccnc21,GI50,MALME-3M melanoma,0.236 µM
same,TGI,MALME-3M melanoma,8.35 µM
same,GI50,K-562 leukemia,0.416 µM
same,TGI,K-562 leukemia,> 100 µM
same,GI50,EKVX NSCLC,8.87 µM
same,TGI,EKVX NSCLC,> 100 µM
same,GI50,UACC-257 melanoma,3.81 µM
same,TGI,UACC-257 melanoma,> 100 µM
same,GI50,NCI-H23 lung,11.9 µM
same,TGI,NCI-H23 lung,> 100 µM
same,GI50,MOLT-4 leukemia,10.6 µM
same,TGI,MOLT-4 leukemia,> 100 µM
same,GI50,SF-268 CNS,7.73 µM
same,TGI,SF-268 CNS,> 93.6 µM
same,GI50,SK-MEL-2 melanoma,2.78 µM
same,TGI,SK-MEL-2 melanoma,> 29.5 µM
same,GI50,HL-60(TB) leukemia,5.85 µM
same,TGI,HL-60(TB) leukemia,> 100 µM
same,GI50,IGROV1 ovarian,0.804 µM
same,TGI,IGROV1 ovarian,> 39.9 µM
same,GI50,HT29 colon,0.355 µM
same,TGI,HT29 colon,3.66 µM
same,GI50,SK-MEL-5 melanoma,1.27 µM
same,TGI,SK-MEL-5 melanoma,> 45.3 µM
same,GI50,SW-620 colon,0.749 µM
same,TGI,SW-620 colon,> 100 µM
same,GI50,HCT-116 colon,0.729 µM
same,TGI,HCT-116 colon,> 100 µM
same,GI50,UO-31 renal,5.37 µM
same,TGI,UO-31 renal,32.2 µM
same,GI50,MDA-MB-435,0.194 µM
same,TGI,MDA-MB-435,0.586 µM
same,GI50,LOX IMVI melanoma,1.45 µM
same,TGI,LOX IMVI melanoma,> 100 µM
same,GI50,NCI-H226 lung,5.22 µM
same,TGI,NCI-H226 lung,> 100 µM
same,GI50,HS 578T breast,> 56.6 µM
same,TGI,HS 578T breast,> 100 µM
same,GI50,OVCAR-3 ovarian,0.62 µM
same,TGI,OVCAR-3 ovarian,17.5 µM
same,GI50,786-0 renal,13.9 µM
same,TGI,786-0 renal,> 68.4 µM
same,TGI,BT-549 breast,> 100 µM
same,GI50,SF-295 CNS,0.755 µM
same,TGI,SF-295 CNS,27 µM
same,GI50,MCF7 breast,1.69 µM
same,TGI,MCF7 breast,> 68.4 µM
same,GI50,NCI-H460 lung,0.612 µM
same,TGI,NCI-H460 lung,> 47.4 µM
same,GI50,HCC-2998 colon,21.9 µM
same,TGI,HCC-2998 colon,> 100 µM
same,GI50,TK-10 renal,5.08 µM
same,TGI,TK-10 renal,31.6 µM
same,GI50,COLO 205 colon,1.22 µM
same,TGI,COLO 205 colon,> 56.4 µM
same,GI50,HCT-15 colon,0.737 µM
same,TGI,HCT-15 colon,> 100 µM
same,GI50,KM12 colon,0.704 µM
same,TGI,KM12 colon,> 100 µM
same,GI50,SNB-75 CNS,2.61 µM
same,TGI,SNB-75 CNS,40 µM
same,GI50,ACHN renal,8.87 µM
same,TGI,ACHN renal,> 100 µM
same,GI50,SK-OV-3 ovarian,10.5 µM
same,TGI,SK-OV-3 ovarian,> 74.8 µM
same,GI50,HOP-92 NSCLC,4.25 µM
same,TGI,HOP-92 NSCLC,> 48.9 µM
same,GI50,DU-145 prostate,14.3 µM
same,TGI,DU-145 prostate,> 100 µM
same,GI50,NCI/ADR-RES ovarian,0.45 µM
same,TGI,NCI/ADR-RES ovarian,> 100 µM
same,GI50,OVCAR-5 ovarian,> 69.3 µM
same,TGI,OVCAR-5 ovarian,> 100 µM
same,GI50,UACC-62 melanoma,1.98 µM
same,TGI,UACC-62 melanoma,> 100 µM
same,GI50,SN12C renal,10.8 µM
same,TGI,SN12C renal,> 100 µM
same,GI50,A498 renal,18.6 µM
same,TGI,A498 renal,> 100 µM
same,GI50,MDA-MB-231 breast,5.79 µM
same,TGI,MDA-MB-231 breast,> 100 µM
same,GI50,U251 CNS,1.52 µM
same,TGI,U251 CNS,17 µM
same,GI50,NCI-H522 lung,0.463 µM
same,TGI,NCI-H522 lung,14.7 µM
same,GI50,T-47D breast,2.33 µM
same,TGI,T-47D breast,> 73.2 µM
same,GI50,A549 NSCLC,1.09 µM
same,TGI,A549 NSCLC,> 45.4 µM
same,GI50,SNB-19 CNS,6.25 µM
same,TGI,SNB-19 CNS,65.7 µM
same,GI50,CAKI-1 renal,1.42 µM
same,TGI,CAKI-1 renal,> 60.8 µM
same,GI50,CCRF-CEM leukemia,6.26 µM
same,TGI,CCRF-CEM leukemia,> 100 µM
same,GI50,RXF 393 renal,5.65 µM
same,TGI,RXF 393 renal,> 70.5 µM
same,GI50,PC-3 prostate,6.94 µM
same,TGI,PC-3 prostate,> 60.3 µM
same,GI50,M14 melanoma,0.787 µM
same,TGI,M14 melanoma,> 100 µM
same,GI50,HOP-62 NSCLC,3.11 µM
same,TGI,HOP-62 NSCLC,35.2 µM
same,GI50,OVCAR-8 ovarian,2.99 µM
same,TGI,OVCAR-8 ovarian,47.3 µM
same,GI50,SR leukemia,0.57 µM
same,TGI,SR leukemia,> 81.2 µM
same,GI50,SF-539 CNS,5.41 µM
same,TGI,SF-539 CNS,> 59.5 µM
same,GI50,RPMI-8226 leukemia,> 25.4 µM
same,TGI,RPMI-8226 leukemia,> 100 µM
same,GI50,OVCAR-4 ovarian,12.3 µM
same,TGI,OVCAR-4 ovarian,> 100 µM
same,GI50,SK-MEL-28 melanoma,11.4 µM
same,TGI,SK-MEL-28 melanoma,> 100 µM
